Several values for one entry are separate records, joined by “and”; a condition that tells them apart may be missing. Equal entries are not always repeated.
How the values were obtained:
Type in all cases: cell-based
[1] = test system: extraintestinal Escherichia coli isolates; assay: Antimicrobial susceptibility testing (CLSI breakpoints), Olmsted County isolates
[2] = test system: Escherichia coli clinical isolates from U.S. veterans; assay: Susceptibility testing (broth microdilution or disk diffusion) at VAMCs with population back-calculations
[3] = test system: Escherichia coli clinical isolates (ESBL-positive and ESBL-negative; ST131 subclones); assay: Broth microdilution antimicrobial susceptibility, NorthShore ESBL case-control isolates
Text: As reported elsewhere, the 267 E. coli study isolates were collected between 2007 and 2010 as part of a prospective case-control study conducted at NorthShore University HealthSystem (Banerjee, R J et al. “Predictors and molecular epidemiology of community-onset extended-spectrum beta-lactamase (ESBL) Escherichia coli infection in a Midwestern community,” 2013 Infect Control Hosp Epidemiol; in press). Cases were defined as adults with ESBL-producing E. coli cultured from any specimen type. Controls were defined as the 1 or 2 patients with non-ESBL E. coli isolates identified just subsequent to the case isolate, and with the same specimen type and location of collection. Isolates obtained in the outpatient setting or within 48 hours of hospital admission were considered causes of community-associated infection. Further study details are as described (Banerjee, R J et al. “Predictors and molecular epidemiology of community-onset extended-spectrum beta-lactamase (ESBL) Escherichia coli infection in a Midwestern community,” 2013 Infect Control Hosp Epidemiol; in press).
The resistance score was the total number of agents to which an isolate was resistant. This study was approved by the NorthShore and VA Medical Center institutional review boards.

Substance: trimethoprim-sulfamethoxazole [TMP/SMX]
- No. of resistant isolates (column %) ([1]; All isolates, N = 299): 88 (29)
- Resistance prevalence among H30 ST131 ([1]; H30 ST131 subclone, N = 70): 47%
- No. of resistant isolates (column %) ([1]; Other STs, N = 129): 37 (29)
- No. of resistant isolates (column %) ([1]; ST9, N = 32): 2 (6)
- No. of resistant isolates (column %) ([1]; ST69, N = 15): 8 (53)
- Prevalence of resistance, ST69 ([1]; ST69 isolates): 53%
- No. of resistant isolates (column %) ([1]; ST73, N = 25): 3 (12)
- No. of resistant isolates (column %) ([1]; ST127, N = 18): 1 (6)
- No. of resistant isolates (column %) ([1]; ST131, N = 80): 37 (46)
- Prevalence of resistance, ST131 ([1]; ST131 isolates): 46%
- Resistance prevalence among non-H30 ST131 ([1]; non-H30 ST131, N = 10): 40%
- Prevalence of resistance, H30 ST131 ([2]; H30 ST131 subclone isolates (H30 subclone vs. others)): 47
- Prevalence of resistance, ST131 ([2]; ST131 isolates (ST131 vs. others)): 42
- Prevalence of resistance, Total (%) ([2]; all isolates): 22%
- Prevalence of resistance, Others (%) ([2]; all non-H30 isolates (H30 subclone vs. others)): 14%
- Prevalence of resistance, Others (%) ([2]; all non-ST131 isolates (ST131 vs. others)): 13%
- ST131's overall contribution to antimicrobial resistance within the source E. coli population ([2]; back-calculations, listed as TMP-SMZ): > 50% and 56%
- Estimated fraction due to ST131 ([2]; fraction of resistance phenotype due to ST131): .56
- Overall prevalence in population, % ([2]; resistance phenotype, back-calculated with 29% FQ resistance): 22%
- Prevalence ratio of resistance ([2]; resistance prevalence among H30 ST131 subclone isolates relative to all other isolates): 3.3
- Prevalence ratio of resistance ([2]; resistance prevalence among ST131 isolates relative to all other isolates): 2.4
- No. resistant (column %) ([3]; ESBL-negative isolates, All N = 167): 31 (19)
- No. resistant (column %) ([3]; ESBL-negative isolates, Non-ST131 N = 145): 18 (12)
- No. resistant (column %) ([3]; ESBL-negative isolates, ST131 N = 22): 13 (59)
- No. resistant (column %) ([3]; ESBL-positive isolates, All N = 100): 63 (63)
- No. resistant (column %) ([3]; ESBL-positive isolates, Non-ST131 N = 51): 39 (76)
- No. resistant (column %) ([3]; ESBL-positive isolates, ST131 N = 49): 24 (49)
- No. of resistant isolates (column %), H30-Rx (N = 47) ([3]; H30-Rx subclone isolates (N = 47) within the H30 ST131 subclone): 21 (45) No. (column %)
- No. of resistant isolates (column %), H30, non-Rx (N = 15) ([3]; H30 non-Rx isolates (N = 15) within the H30 ST131 subclone): 10 (67) No. (column %)
- No. of resistant isolates (column %), H30 (N = 62) ([3]; H30 subclone isolates (N = 62) among 71 E. coli ST131 isolates): 31 (50) No. (column %)
- No. of resistant isolates (column %), Non-H30 (N = 9) ([3]; non-H30 isolates (N = 9) among 71 E. coli ST131 isolates): 6 (67) No. (column %)

Reference: patent US9834823B2, “Primers, assays and methods for detecting an E. coli subtype” (priority 2012, dated 2017)
